One assay deals with Akt. As to the kind of experiment: Akt phosphorylation in naive HPASMC treated with media from apoptotic cells (Western blot). The following applies: apoptotic conditioned media, 24 h, L-690,330 at 500 μM, FIG. 9C. The class given is cell-based, human. As for the experimental part: Western blot and immunoprecipitation: For an analysis of the total lung proteins, lung tissues were lysed. According to the manufacturer's protocol, the membrane proteins were isolated using Mem-PER Plus Membrane Protein Extraction Kit (ThermoFisher Scientific, Rockford, IL). Briefly, 20-40 mg of lung tissue was quickly washed in Cell WashSolution to remove any blood components, transferred to permeabilization buffer mixed with protease and phosphatase inhibitor cocktails, homogenized using Fisher Homogenizer 850 for 1 minute, and shaken in UltraCruz Shaker at 0° C. for 10 minutes. The homogenate was centrifuged at 16,000 g for 15 minutes to pellet permeabilized cells. The supernatant containing cytosolic proteins was carefully transferred to a separate tube. […] The reactive bands were visualized using a chemiluminescent protocol, recorded with the ChemiDoc MP Imaging System (Bio-RadLaboratories, Hercules, CA), and analyzed using Image Laboratory software. […]
Cell culture: Human pulmonary artery endothelial cells (HPAEC; cat. no. 3100, lot no. 3904) and human pulmonary artery smooth muscle cells (HPASMC; cat. no. 3110, lot no. 0294) were purchased from ScienCell (Carlsbad, CA), one donor for each cell type. […] The level of apoptosis was quantified using Apoptosis and Necrosis Quantification Kit (Biotum, Fremont, CA) according to the manufacturer's protocol. […]

The next assay addresses T1, RAGE/IMPA1 (Rattus norvegicus, UniProt P97697).
T1 construct: from tissue; host or cells: lung of Sprague-Dawley rats (SU5416/hypoxia PAH model)
T1 sequence (P97697 1-277): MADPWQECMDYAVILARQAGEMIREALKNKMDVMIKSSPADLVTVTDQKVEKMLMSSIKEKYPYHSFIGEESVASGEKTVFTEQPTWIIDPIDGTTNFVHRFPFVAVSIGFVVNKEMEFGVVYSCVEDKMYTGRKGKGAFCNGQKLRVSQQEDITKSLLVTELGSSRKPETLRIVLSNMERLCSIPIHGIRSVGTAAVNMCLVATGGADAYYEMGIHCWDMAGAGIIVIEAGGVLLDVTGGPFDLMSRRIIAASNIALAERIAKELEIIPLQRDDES
Kind of assay: RAGE/IMPA1 co-immunoprecipitation in lungs of SU/Hx rats after peptide injection. The following applies: 5 μg/kg i.p. daily for 1 wk, FIG. 11B. The class given is in vivo. As for the experimental part:
(§1) Rat models of pulmonary hypertension: Thirty-two Sprague-Dawley female rats (200-250 g) were purchased from Charles River (Wilmington, MA). Animals were kept in a 12-h:12-h light-dark cycle and received standard rodent food and water ad libitum. All experimental procedures were approved by the University of Arizona's Institutional Animal Care and Use Committee. To induce PAH, rats received either the vehicle or a single dose of the VEGF receptor 2 antagonist SU5416, 50 mg/kg sc, as previously described. On the day of injection, the PAH rats were placed in a hypoxic chamber (BioSpherix, Redfield, NJ), and the oxygen was maintained at the level of 10±0.5%. The O2 and CO2 concentrations were continuously monitored (PROOX 110 BioSpherix oxygen controller and LB-2 CO2 analyzer; Sensormedics).
For immunoprecipitation (IP), RAGE antibodies conjugated to agarose beads were used according to the manufacturer's (Santa Cruz Biotechnology) protocol. Lung tissue lysate (300 μg of total protein) was rotated at room temperature with 20 μl of bead solution for 2 hours. Beads were collected by brief centrifugation (30 seconds at 1,000 g), washed four times with lysis buffer and PBS, resuspended with 30 μl of 2× Laemmli sample buffer, and boiled for 5 minutes at 95° C. The supernatant collected by centrifugation was used for Western Blot analysis as described.

A further assay concerns SU/Hx rats. As to the kind of experiment: SU/Hx rat model of pulmonary arterial hypertension: RV pressure and RV hypertrophy. The class given is in vivo. The note with it: 5 μg/kg i.p. daily for 1 wk. The procedure:
as §1
The animals were analyzed after 1 or 2 weeks of exposure to hypoxia or after 5 weeks (i.e., 3 weeks of hypoxia and 2 weeks of normoxia). The control rats were kept under normoxic conditions for the duration of the study (5 weeks). At the end of each study period, animals were anesthetized ([…], 100 mg/kg ip) and instrumented for measurement of right ventricle (RV) hemodynamics. Briefly, a PE-240 polyethylene tube was inserted into the trachea to facilitate breathing. […]

For assay [1], the system named is PAEC isolated from IPAH patients. As to the kind of experiment: Proliferation of PAEC isolated from IPAH patients. The class given is cell-based, human. The note with it: 3.3 mg/ml, FIG. 11E.
The test system of assay [2] is PAEC isolated from Control subjects. As to the kind of experiment: Growth of PAEC isolated from Control subjects (healthy cells). The note with it: 3.3 mg/ml, FIG. 11F. The class given is cell-based, human.
In a further assay the test system is HeLa cells. Kind of assay: Proliferation of HeLa cells (human cancer cells). The note with it: FIG. 11G. The class given is cell-based.
Assay [3] deals with T2, receptor for advanced glycation endproducts (RAGE), rat, endogenous in lung tissue (rat, UniProt Q63495 23-402).
T2 construct: Endogenous rat protein, pulled down from lung lysate with RAGE antibody on agarose beads or detected in situ by PLA; No construct limits apply; also called full-size RAGE
As to the kind of experiment: RAGE co-IP from PAH rat lung, mass spectrometry, immunoblot time course and PLA. An excerpt: FIGS. 4A, 4B, and 4C show a receptor for advanced glycation endproducts (RAGE) interacting with inositol monophosphatase 1 (IMPA1) in pulmonary arterial hypertension (PAH). Mass spectrometry analysis of proteins co-immunoprecipitated (co-IP) with RAGE from lungs identified IMPA1 as a novel RAGE interacting partner. The RAGE-IMPA1 complex was discovered in both samples from PAH animals (week 5) but not in control (peptide probability […]; 4 peptides with P>89%). […] There was no interaction between RAGE and IMPA1 in controls from week 1 RAGE/IMPA1 were efficiently co-IP (n=4 for all groups). Results are expressed as box and whisker plots (boxes: 25th to 75th percentile of the data; whiskers: minimum to maximum; the line represents the median value). *P<0.05 vs. control. Statistical analysis was performed by Newman-Keuls multiple-comparisons test. […] Images are representative of 6 pulmonary arteries/at n=4 rats/group. Gray images were taken using light microscopy (×20) to visualize the tissue structure. The square represents the area of magnification (×100). The white marker corresponds to 25 μm. […] The dotted line is traced following the external lamina of the vessel. The arrowheads point to the endothelial cells with no PLA signal; white arrows point to the cells in the pulmonary artery media and adventitia cells with a bright PLA signal. IB, immunoblot. […]

T2 sequence (Q63495 23-402 limits assumed): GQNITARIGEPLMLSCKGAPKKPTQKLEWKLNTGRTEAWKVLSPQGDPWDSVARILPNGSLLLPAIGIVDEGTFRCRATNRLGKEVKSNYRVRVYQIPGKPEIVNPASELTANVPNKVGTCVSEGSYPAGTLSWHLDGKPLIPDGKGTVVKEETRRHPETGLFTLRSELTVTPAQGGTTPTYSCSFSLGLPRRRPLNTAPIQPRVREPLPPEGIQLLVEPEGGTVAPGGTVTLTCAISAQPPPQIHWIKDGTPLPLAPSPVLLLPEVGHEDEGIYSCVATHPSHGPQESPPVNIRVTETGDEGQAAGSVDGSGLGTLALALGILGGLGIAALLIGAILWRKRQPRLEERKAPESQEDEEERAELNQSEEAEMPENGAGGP

For `CC(Oc1ccc(O)cc1)(P(=O)(O)O)P(=O)(O)O` [L-690,330], the Akt phosphorylation entry with Akt is recorded as “significantly attenuated”.
In the case of ILWQRRQRRG [SEQ ID NO: 1], the “RAGE/IMPA1 co-IP” value with RAGE/IMPA1 was “inhibits RAGE/IMPA1 co-IP”. In the assay on SU/Hx rats (FIG. 11C), the “RVSP (right ventricle systolic pressure)” value is “reduces RVSP”. Besides, the RV hypertrophy result in the assay on SU/Hx rats (FIG. 11D) is “reduces”.
“anti-RAGE/IMPA1 peptide: peptide designed based on the sequence of cytosolic tails of RAGE predicted to interact with IMPA1; probably SEQ ID NO: 1 (ILWQRRQRRG)”: the “proliferative phenotype of PAEC isolated from IPAH patients” value in assay [1] is reported as “reverses the highly proliferative phenotype”. For the same molecule, the “growth of PAEC isolated from Control subjects” value in assay [2] is reported as “does not affect the growth”. The “proliferative phenotype of HeLa cells” value in the assay on HeLa cells is “reverses the proliferative phenotype”.

B1: inositol monophosphatase 1 (IMPA1), rat, endogenous in lung tissue (enzyme, UniProt P97697 1-277, looked up)
chain: MADPWQECMDYAVILARQAGEMIREALKNKMDVMIKSSPADLVTVTDQKVEKMLMSSIKEKYPYHSFIGEESVASGEKTVFTEQPTWIIDPIDGTTNFVHRFPFVAVSIGFVVNKEMEFGVVYSCVEDKMYTGRKGKGAFCNGQKLRVSQQEDITKSLLVTELGSSRKPETLRIVLSNMERLCSIPIHGIRSVGTAAVNMCLVATGGADAYYEMGIHCWDMAGAGIIVIEAGGVLLDVTGGPFDLMSRRIIAASNIALAERIAKELEIIPLQRDDES
notes: Endogenous rat protein co-immunoprecipitated with RAGE
For the molecule B1, in assay [3], the binding result is “binds”.

These data come from patent US20240390455A1, “METHODS AND COMPOSITIONS FOR TREATING CANCERS AND OTHER PROLIFERATIVE DISORDERS” (ARIZONA BOARD OF REGENTS ON BEHALF OF THE UNIVERSITY OF …, priority 2022, published 2024).
